No end group written: not given here.
Key:
SFO^Ptger3 neurons [1] = experiment: Fiber photometry calcium recording from SFO^Ptger3 neurons (GCaMP7s); format: in vivo, mice; details: for calcium response of SFO^Ptger3 neurons to control stimuli (normalized ΔF/F): i.p., mannitol 2 M, 10 ml per kg BW, ghrelin 10 μg, LiCl 0.15 M, 15 ml per kg BW
Experimental: Calcium measurement from SFO^Ptger3 neurons: Mice were headfixed to eliminate the interference from movement. Photometry recording was performed using a commercial photometry system (Neurophotometrics, FP3002). Two LED of different wavelength (470 nm and 415 nm) were bandpass filtered and a patch cord (0.48 NA, Doric lenses) was attached to the photometry system via a 20× objective. The sampling rate was fixed at 40 Hz. Data were acquired with Bonsai (Neurophotometrics) by drawing a region of interest and calculating the mean pixel value, and then were exported to MATLAB for further analysis. The isosbestic signal (415 nm) was fit with a biexponential model and was then linearly scaled to the calcium signal (470 nm). The ΔF/F was calculated as (raw 470-nm signal−fitted 415-nm signal)/(fitted 415-nm signal). For all sessions, stimulus time was recorded through a customized TTL button. During PGE2 activation experiment (FIG. 7C), mice were given PGE2 at a dose of 1 mg per kg BW or DMSO in 100 μl PBS subcutaneously. During other internal-state treatments, mice were exposed to the following stimuli via intraperitoneal injection: 2M mannitol (10 ml per kg BW); […] of ghrelin (in 100 μl PBS), and 0.15M LiCl (15 ml per kg BW). All analysis used the average of 5 min prior to the stimulus as a baseline mean. Normalized ΔF/F was calculated by subtracting the baseline ΔF/F from the mean ΔF/F between 100 and 1500 sec after the stimulus.

mice = details: thirst; formalin in dorsal hindpaw
Experimental: Formalin-induced tolerance: Mice were injected with formalin or PBS in the dorsal hindpaw 45-60 min prior to the lick access. Osmotic thirst was induced 10-15 min prior to the lick access. Lick number was recorded for 30 min.

circulating PGE2 = details: formalin-induced inflammation
Experimental: Videos were taken for 1 hr following the injection and analyzed for the time mice spent licking the dorsal hindpaw. Mice with more than 30-sec licking paw time in the first 5 min after injection were used for video analysis. Each mouse was subjected to formalin injection twice: in one hind paw under sated conditions, and another under either sodium depleted or photostimulated conditions. To test the effect of optogenetic stimulation, light stimulation was given at 20 Hz with a 1-sec on 3-sec off paradigm for 60 min.
Mice were anaesthetized with isoflurane. Blood was collected via heart puncture into EDTA-coated tubes (BD Microtainer, 365974) and kept on ice. Plasma was then separated by centrifugation at 1,500 g for 20 min. ELISA assays were performed following the protocols of PGE2 ELISA kit (Cayman Chemical, 514531), serotonin ELISA kit (Eagle Bio, SER39-KO1), and progesterone ELISA kit (Cayman Chemical, 582601).

pre-LC^Pdyn neurons = experiment: High-salt licks during pre-LC^Pdyn photostimulation with or without amiloride; format: in vivo, mice
Experimental: (§1) For 5-sec brief access assay, mice were presented with 1 bottle of solution for 30 sec per trial for maximum waiting time before the first lick, and 40 sec between trials. After an initial lick, animals were allowed to drink the solution for additional 5 sec before a shutter closed. To avoid taste conditioning effect, animals were tested with only one solution per day. After testing aversive solutions, bitter and high salt, animals sometimes refused to drink any solution. These animals were retrained with water and low salt until their behavioral level recovers to our criteria stated above.
(§2) For optogenetic activation, 473-nm laser-pulse sequences were delivered via an optic cable (Doric Lenses, MFP—FC-ZF) with pulse generators (World Precision Instruments, SYS-A310 or Quantum composers, Sapphire 9200). The laser intensity was maintained at 10 mW at the tip of the fiber. […] For 5-sec brief access assay, the light stimulation was given at 20 Hz throughout the trial except the paradigm in FIG. 3C.

SFO^Ptger3 neurons [2] = experiment: Salt tolerance induced by SFO^Ptger3 photostimulation with or without amiloride; format: in vivo, mice
Experimental: as §1, §2

[3] = test system: dopamine release in the nucleus accumbens (NAc); experiment: Dopamine release in the NAc (dLight1.3b fiber photometry) during high-salt consumption; format: in vivo, mice
Experimental: Dopamine measurement: Mice were freely moving in the chamber with gustometer. Bulk fluorescence signals were collected with a fiber photometry setting as described with the light of 405 nm and 490 nm. The ΔF/F was calculated as (raw 490-nm signal−fitted 405-nm signal)/(fitted 405-nm signal). Mice were induced with osmotic thirst 10-15 min, or sodium depletion 24 hr before the access of 500 mM NaCl. For wild-type mice, under PGE2 activation condition, mice were injected PGE2 at a dose of 1 mg per kg BW subcutaneously 1 hr before the shutter open. For Ptger3cre mice, mice were injected with either CNO or vehicle 20 min before the shutter opened. Lick number was recorded simultaneously with the fluorescence signal collection. The first lick bout was identified with the lick rate more than 3.5 and lick number more than 5, with less than 1-sec interval to the subsequent lick. If no lick bout was detectable (observed with osmotic thirst), any first lick event was included into the data. All baseline signals were calculated by averaging signals between 10-20 sec prior to the first lick. Response amplitude (normalized ΔF/F) was calculated by subtracting the baseline ΔF/F from the mean ΔF/F between 0 and 10 sec after the lick initiated.

SFO/OVLT^Ptger3 neurons = experiment: Chemogenetic inhibition (AAV-DIO-hM4Di + CNO) of LT^Ptger3 neurons, 30-min consumption assay; format: in vivo, mice
Experimental: Surgery procedures were performed according to methods known in the art. Briefly, ketamine (1 mg/ml) and xylazine (10 mg/ml) in saline were injected intraperitoneally at a dose of 10 ml per kg body weight (BW) for anaesthesia. Ketoprofen was injected subcutaneously at a dose of 5 ml per kg BW. Surgery was performed with a stereotaxic apparatus (Narishige, SR-5M-HT) on a heating pad at 37° C. Virus was delivered with a microprocessor-controlled injection system (World Precision Instruments, Nanolitre 2000) at 100 nl/min. The following coordinates were used: for pre-LC: anterior-posterior (AP), 9,000, medial-lateral (ML), 1,000, ventral-dorsal (VD), 3,800; for SFO: AP, 4,000, ML, 0, VD, 2,500; for OVLT: AP, 2,475, ML, 0, VD, 4,750; for dorsal part of the NAc medial shell: AP, 2,100, ML, 700, VD, 4,000. For optogenetic experiments, virus was delivered unilaterally at a volume of 120-200 nl. Implants were made by gluing a 200-μm fibre bundle (Thorlabs, FT200EMT) to a ceramic ferrule (Thorlabs, CF230-10) with epoxy. The fibre implant was placed 200 μm above the virus injection site. For fiber photometry experiments, virus was delivered at a volume of 150-200 nl (calcium measurement) or 500 nl (dopamine measurement) per region. A 400-μm fiber bundle (Thorlabs, FT400UMT) was used instead. For chemogenetic inhibition experiments, virus was delivered at 180-200 nl per region. For ablation experiments, virus was delivered at 200-250 nl per region. For local knockdown experiments, virus was delivered at 150-200 nl per region. At the end of experiments, all animals were euthanized for histological examination.
For 30-min access assay, mice were presented with 1 bottle for 30 min and consumption was measured.
For chemogenetic experiments, clozapine N-oxide (CNO) was administered intraperitoneally at doses of 10 mg per kg BW for inhibition or 1 mg per kg BW for activation 20 min before the consumption trial started. Pure water instead of saline was used as vehicle to avoid sodium repletion.

SFO = experiment: Fos immunofluorescence after subcutaneous PGE2 injection; format: in vivo, mice
Experimental: PGE2-induced behavior: PGE2 was injected subcutaneously at a dose of 1 mg per kg BW. Animals had no food or water for 15-90 min before behavioral experiments. For immunohistochemistry, PGE2 was injected at a dose of 3 mg per kg BW and maintained with no food or water for 60 min before euthanasia.
Mice were euthanized with CO2 and perfused with PBS and 4% paraformaldehyde. Extracted mouse brains were fixed overnight at 4° C. in 4% PFA and sectioned coronally to 100-μm slides via vibratome (Leica, VT-1000 S). The sections were blocked (10% donkey serum, 0.2% Triton X-100 in PBS) for 1 hr at room temperature and incubated with primary antibody at 4° C. overnight. The following primary antibodies were used: rabbit anti-FOS (1:500), sheep anti-Foxp2 (1:2,000), chicken anti-GFP (1:3,000), rat anti-mCherry (1:500), and goat anti-nNos (1:500). The sections were washed three times with PBS and incubated with the secondary antibody (1:500; Jackson Immunoresearch) and DAPI ([…]) for 4 hr under room temperature. After three times wash with PBS, the sections were mounted on the glass slide. All slides were imaged with confocal microscope (Leica, TCS SP8) or slide scanner (Olympus, BX61VS).

Ptger3 = experiment: PGE2-induced behavior: high-salt consumption / aversive taste tolerance (gustometer lick assay); format: in vivo, mice
Experimental: Prostaglandin: PGE2 powder was diluted in DMSO at 50 mg/ml as stock. For behavioral assay, we used the final concentration of 1 mg per kg BW in PBS containing 1.7% DMSO (v/v). The same vehicle with DMSO was used as control.
All assays were performed in a custom gustometer (Dialog Instruments). All animals were at least trained with osmotic thirst and sodium depletion prior to the behavior trials. Animals were trained to drink at least 200 licks for 500 mM NaCl in 30 min under sodium depletion. Generally, two training sessions with sodium depletion are sufficient to achieve this criterion. […] To prevent this, all tastants at lower concentrations were exposed to animals before experiment. For tolerance tests, one-bottle consumption assay was used in order to avoid preference development during the session.

prostaglandin production = experiment: NSAIDs-induced loss-of-tolerance (lick number, 30 min); format: in vivo, mice; details: sodium depletion; ibuprofen 1 mg per ml drinking water three days plus aspirin 40 mg per kg BW i.p., given together
Experimental: NSAIDs-induced loss-of-tolerance: NSAIDs were used to suppress PGE2 production. Mice were given water supplemented with ibuprofen (1 mg per ml) for three days. On the second day, mice were injected with furosemide to induce sodium depletion. On the third day, aspirin (40 mg per kg BW) was injected intraperitoneally 1-2 hr prior to the lick access. Lick number was recorded for 30 min.

Molecule: [Cl-].[Li+] [LiCl]
- calcium response of SFO^Ptger3 neurons to control stimuli (normalized ΔF/F) (SFO^Ptger3 neurons [1]): no activation

Molecule: ghrelin (GSSFLSPEHQRVQQRKESKKPPAKLQPR; ends and bridges not checked; UniProt Q9UBU3 24-51, looked up) [control stimulus for hunger]
- calcium response of SFO^Ptger3 neurons to control stimuli (normalized ΔF/F) (SFO^Ptger3 neurons [1]): no activation

Molecule: C=O [formalin]
- high salt tolerance (500 mM NaCl) (mice): partially induced high salt tolerance
- water intake (mice): unaffected
- circulating PGE2 levels (circulating PGE2): increased the PGE2 levels

Molecule: N=C(N)NC(=O)c1nc(Cl)c(N)nc1N [amiloride]
- sodium consumption (500 mM NaCl licks) induced by pre-LC^Pdyn photostimulation (pre-LC^Pdyn neurons): no longer induced sodium consumption
- SFO^Ptger3-mediated salt tolerance (SFO^Ptger3 neurons [2]): no effect

Molecule: C[N+]1([O-])CCN(C2=Nc3cc(Cl)ccc3Nc3ccccc32)CC1 [CNO, clozapine N-oxide]
- dopamine signals in the NAc (dLight1.3b) ([3]; hM3Dq in SFO^Ptger3 neurons, CNO i.p. 1 mg per kg BW vs vehicle, high-salt ingestion): greatly enhanced
- tolerance toward aversive salt (500 mM NaCl) (SFO/OVLT^Ptger3 neurons; hypovolemic state, hM4Di in SFO/OVLT, CNO i.p.): drastically suppressed tolerance
- solute intake (water or high salt) (SFO/OVLT^Ptger3 neurons; osmotic thirst, LT^Ptger3 inhibition): no effect
- tolerance of low salt with quinine or KCl (SFO/OVLT^Ptger3 neurons; sodium depletion, LT^Ptger3-inhibited mice): no longer tolerated
- tolerance of low salt with KCl or quinine (SFO/OVLT^Ptger3 neurons; sodium depletion, only SFO^Ptger3 neurons inhibited (hM4Di in SFO)): blunted tolerance
- tolerance toward aversive salt (SFO/OVLT^Ptger3 neurons; sodium-depleted state, hM4Di in SFO/OVLT, CNO i.p. 10 mg per kg BW): drastically suppressed tolerance

Molecule: CCCCC[C@H](O)/C=C/[C@H]1[C@H](O)CC(=O)[C@@H]1C/C=C\CCCC(=O)O [PGE2, Prostaglandin E2]
- calcium dynamics of SFO^Ptger3 neurons (normalized ΔF/F) (SFO^Ptger3 neurons [1]; subcutaneous PGE2 1 mg per kg BW vs vehicle): time-locked calcium increases
- Fos immunofluorescence signals in the SFO (SFO; peripheral (subcutaneous) PGE2 3 mg per kg BW, Ptger3-dependent): strong Fos immunofluorescence signals
- Fos signal in the pre-LC (SFO; subcutaneous PGE2, scramble- and Ptger3-shRNA-injected mice): No Fos signal
- PGE2-mediated high-salt tolerance (Ptger3; Ptger3 KD animals): largely abolished
- PGE2-mediated high-salt tolerance (Ptger3; Ptger3^Cre/Cre animals): largely abolished
- salt tolerance (500 mM NaCl consumption) (Ptger3; osmotic thirst, wild-type or Ptger3^Cre/wt, PGE2 s.c. 1 mg per kg BW): increased salt tolerance
- appetite (high-salt consumption) (Ptger3; sated conditions, PGE2 s.c.): did not induce any appetite
- high-salt consumption during dLight recording ([3]; thirsty mice, subcutaneous PGE2 1 mg per kg BW): increased high-salt consumption
- dopamine release in the NAc (dLight1.3b) ([3]; thirsty mice, subcutaneous PGE2, 500 mM NaCl): enhanced dopamine release

Molecule: OC[C@@H](O)[C@@H](O)[C@H](O)[C@H](O)CO [mannitol]
- calcium response of SFO^Ptger3 neurons to control stimuli (normalized ΔF/F) (SFO^Ptger3 neurons [1]): no activation

Molecule: CC(=O)Oc1ccccc1C(=O)O [aspirin]
- salt tolerance (high salt) (prostaglandin production): significantly reduced salt tolerance

Molecule: CC(C)Cc1ccc(C(C)C(=O)O)cc1 (stereo not shown) [ibuprofen]
- salt tolerance (high salt) (prostaglandin production): significantly reduced salt tolerance
